The text below walks through data of patent publication US11299472B2, “Fumarate salt of (R)-3-(1-(2,3-dichloro-4-(pyrazin-2-yl)phenyl)-2,2,2- trifluoroethyl)-1-methyl-1-(1-methylpiperidin-4-yl) urea, methods of preparation, and uses thereof” (Helsinn Healthcare SA, priority 2017, dated 2022).

The subject of data set [1] is Snord116+/− (Het) mice and wild-type (WT) littermates. As to the kind of experiment: Food intake after acute administration in Prader-Willi mouse model. The following applies: cabergoline 0.5 mg/kg single i.p., fasted 16 hours. The data set is classed as in vivo. From the text:
The effect of HM04 fumarate salt on food intake behavior and glucose tolerance was investigated in the Snord116+/−(Het) mouse genetic model of Prader-Willi syndrome (Het mouse) compared to wild-type (WT) littermates. Since D2R agonists suppress food intake, the FDA approved D2R agonist cabergoline was used as an experimental control. Phenotypic characteristics of this PWS mouse model include hyperphagia, postnatal growth retardation, high ghrelin, and low growth hormone. Ding F., et al. SnoRNA Snord116 (Pwcr1/MBII-85) deletion causes growth deficiency and hyperphagia in mice. PloS one. 2008; 3(3):e1709. These PWS mice eat more frequently than WT littermates, particularly during the light cycle and are more motivated to work for food (more level presses) (data not shown).
Acute administration: Mice (3-, 7-, and 12-month-old) were fasted for 16 hours and then administered a single intraperitoneal injection of vehicle or vehicle containing HM04, cabergoline, or HM04 and cabergoline according to Table 8, below.
HM04 was dissolved in water for injection and cabergoline was dissolved in DMSO to provide a 5% DMSO/water solution for injection. Mice were then given free access to food, and cumulative food intake was measured at 1, 2, 4, 8, 12, and 24 hours post-dosing. […] Data was analyzed for significance using 2-way ANOVA, Bonferroni post hoc test (Graphpad Prism, Prism 5.0, San Diego, Calif.).

Data set [2] in a line: Estimated aqueous solubility. It is filed as physicochemical. The following applies: aqueous (water).
Data set [3] is described as follows: Rat pharmacokinetic study, HM04 free base vs HM04 fumarate salt (Example 9). The data set is classed as in vivo, male Sprague Dawley rats. To be noted: 3 mg/kg oral. The procedure:
The pharmacokinetics of HM04 in plasma of male Sprague Dawley rats dosed with a single oral administration of 3 mg/kg HM04 (based on the weight of the free base) formulated in a solution of 10% DMAC, 6% Solutol, and 84% PBS using either the HM04 free base or HM04 fumarate salt were compared. Blood samples were withdrawn at set time intervals and plasma concentration of HM04 was measured by LC-MS/MS. A comparison of the plasma concentration of HM04 (ng/mL) over time in rats dosed orally with HM04 free base and HM04 fumarate salt is provided in FIG. 17.

Data set [4] can be described thus: Dog pharmacokinetic study, HM04 free base vs HM04 fumarate salt (Example 9). It is filed as in vivo, male Beagle dogs. The procedure: The pharmacokinetics of HM04 in plasma of male Beagle dogs dosed with a single oral administration of 2 mg/kg HM04 formulated in a solution of 10% DMAC, 6% Solutol, and 84% PBS using either the HM04 free base or HM04 fumarate salt were compared. A comparison of the plasma concentration of HM04 (ng/mL) over time in dogs dosed orally with HM04 free base and HM04 fumarate salt is provided in FIG. 18. Bioavailability was calculated from a dose normalized ratio of the oral mean AUC to the intravenous mean AUC (AUCpo/AUCiv×Doseiv/Dosepo).

The nature of data set [5]: GVS analysis (hygroscopicity). It is filed as physicochemical. The procedure: For the GVS analysis, 15-20 mg of sample was loaded into an IgaSorp vapour sorption balance (Hiden Analytical Instruments). The sample was then dried by maintaining a 0% humidity environment until no further weight change was recorded. The sample was then subjected to a ramping profile from 0 to 90% RH at 10% RH increments, maintaining the sample at each step until equilibration had been attained (99% step completion). Upon reaching equilibrium, the % RH within the apparatus was ramped to the next step and the equilibration procedure repeated. After completion of the sorption cycle, the sample was dried using the same procedure. The weight change during the sorption/desorption cycles were then monitored, allowing for the hygroscopic nature of the sample to be determined.

The nature of data set [6]: Dog pharmacokinetic study, HM04 free base vs HM04 fumarate salt (Example 9). The data set is classed as in vivo, male Beagle dogs. The source holds these as a separate data set.
Data set [7] in a line: Rat pharmacokinetic study, HM04 free base vs HM04 fumarate salt (Example 9). It is filed as in vivo, male Sprague Dawley rats.
Data set [8] has as its system ghrelin-induced increase of GH. As to the kind of experiment: Ghrelin-induced increase of growth hormone in rats. The data set is classed as in vivo. To be noted: after 15 μg/kg ghrelin i.v. Here is the method: Rats were divided into four groups: 1) 1 ml/kg saline plus 10 ml/kg 0.5% CMC p.o. (n=6); 2) 15 μg/kg ghrelin i.v. plus 10 ml/kg 0.5% CMC p.o. (n=6); 3) 30 mg/kg HM04 fumarate salt p.o. 2 hours before 15 μg/kg ghrelin i.v. (n=6); 4) 10 mg/kg ghrelin antagonist R011 i.p. 30 minutes before 15 μg/kg ghrelin i.v. (n=6). Blood was collected as 100 μl samples at time 0 and at 15 minutes after ghrelin injection. Rats were anesthetized with 64.8 mg/kg sodium pentobarbital. A catheter filled with heparinized saline solution was inserted in the left femoral artery for blood collection and fitted with an extension tube, 1-mL sampling syringe, and a 3-way cock to allow excess blood to return.
Plasma levels of growth hormone (GH) were determined using Rat GH ELISA (Millipore, Catalog No. EZRMGH-45K). Measurements were performed in duplicate. […] One-way and two-way ANOVA test was used to compare differences between groups. All values are presented as mean±SEM. One-way ANOVA was performed followed by Turkey's post hoc test where significance was indicated by p values<0.05 or p values<0.01.

The mark [9] stands for this setting: male, Sprague Dawley, plasma, mean ± S.D., n=3.
Setting [10] is: male, Beagle, plasma, 2 mg/kg oral, mean ± S.D., n=3.

Ends that are not written are not given here.

For the compound `C=CCN1C[C@H](C(=O)N(CCCN(C)C)C(=O)NCC)C[C@@H]2c3cccc4[nH]cc(c34)C[C@H]21` [Cabergoline, cabergoline, reference compound], the cumulative food intake entry in data set [1] (7-month-old Het mice) and in data set [1] (7-month-old WT mice) was “inhibited food intake” each time.
In the case of `CN1CCC(N(C)C(=O)N[C@H](c2ccc(-c3cnccn3)c(Cl)c2Cl)C(F)(F)F)CC1` [HM04 free base, (R)-3-(1-(2,3-dichloro-4-(pyrazin-2-yl)phenyl)-2,2,2-trifluoroethyl)-1-methyl-1-(1-methylpiperidin-4-yl) Urea], the solubility (in general, the dissolved amount per volume that the medium holds) in data set [2] was below 2000 µg/mL. The HM04 plasma concentration amounted to 39.0 ± 5.2 ng/mL in data set [3] (0.50 hours, mean ± S.D., n=3); 44.4 ± 6.0 ng/mL in data set [3] (1 hour, mean ± S.D., n=3); 35.7 ± 11.3 ng/mL in data set [3] (2 hours, mean ± S.D., n=3); 7.9 ± 5.8 ng/mL in data set [3] (8 hours, mean ± S.D., n=3); 8.94 ± 5.56 ng/mL in data set [4] (2 mg/kg oral, 0.25 hours, mean ± S.D., n=3); 49.40 ± 7.72 ng/mL in data set [4] (2 mg/kg oral, 0.50 hours, mean ± S.D., n=3). Besides, the HM04 plasma concentration in data set [4] (2 mg/kg oral, 2 hours, mean ± S.D., n=3) was 74.05 ± 3.77 ng/mL; in data set [6] (2 mg/kg oral, 1 hour, mean ± S.D., n=3), 66.33 ± 4.25 ng/mL; in data set [6] (2 mg/kg oral, 4 hours, mean ± S.D., n=3), 67.34 ± 6.27 ng/mL; in data set [7] (3 mg/kg oral, 0.25 hours, mean ± S.D., n=3) it was 24.2 ± 6.6 ng/mL; in data set [7] (3 mg/kg oral, 4 hours, mean ± S.D., n=3), 25.0 ± 13.0 ng/mL. Moreover, the values for the AUC(0-t) in data set [3] (setting [9]) and in data set [4] (setting [10]) were 220 ± 57.2 ng·h/mL and 929 ± 142 ng·h/mL, respectively. Besides, the Tmax (commonly the time from dosing to the highest level) turned out to be 1 h in data set [3] (setting [9]) and 2 h in data set [4] (setting [10]). For the same compound, the concentration at 24 hours in data set [3] (male, Sprague Dawley, plasma, po, 3 mg/kg, 24 hours, N = 1 (two of three animals below level of quantification)) amounted to 2.4 ng/mL. Besides, the bioavailability (usually dose-corrected exposure relative to a reference, in per cent) is 59.4 ± 9.11% in data set [4] (male, Beagle, plasma, 2 mg/kg oral vs 1 mg/kg intravenous, dose normalized AUC ratio) and 22.2 ± 5.8% in data set [7] (male, Sprague Dawley, plasma, 3 mg/kg oral vs 3 mg/kg intravenous mean AUC). Moreover, the Cmax – broadly, the peak of the concentration-time curve – in data set [4] (setting [10]) amounted to 74 ± 3.77 ng/mL; in data set [7] (male, Sprague Dawley, plasma, 3 mg/kg oral, mean ± S.D., n=3), 44.4 ± 6 ng/mL. Moreover, the “hygroscopicity (GVS)” value in data set [5] was “slightly hygroscopic”. The “weight gain (GVS)” value is reported as “approximately 1.5%” in data set [5] (up to 70% relative humidity (RH)) and “approximately 2%” in data set [5] (up to 80% RH). Besides, the AUC in data set [6] (male, Beagle, plasma, 1 mg/kg intravenous, three dogs, read-out: mean AUC following intravenous administration) is 782 ± 364 ng·h/mL; in data set [7] (male, Sprague Dawley, plasma, 3 mg/kg intravenous, three rats, read-out: mean AUC following intravenous administration), 990 ± 24.6 ng·h/mL. For the same compound, the concentration at 8 h in data set [6] (male, Beagle, plasma, po, 2 mg/kg, 2 mg/kg oral, 8 hours, mean ± S.D., n=3) stood at 49.2 ± 10.2 ng/mL. Also, in data set [6] (male, Beagle, plasma, po, 2 mg/kg, 2 mg/kg oral, 24 hours, mean ± S.D., n=3), the concentration at 24 h came to 6.61 ± 4.38 ng/mL.
In the case of “ghrelin: growth hormone-releasing peptide, injected i.v. to induce GH increase (GSSFLSPEHQRVQQRKESKKPPAKLQPR; ends and bridges not checked; UniProt Q9UBU3 24-51, looked up) [reference compound]”, the “mean plasma GH concentration” value in data set [8] was 90 to 120 ng/mL.
